Patent US20260226076A1, “FUSED MULTICYCLIC COMPOUNDS AND THEIR USE AS PARP1 INHIBITORS” (LAEKNA THERAPEUTICS SHANGHAI CO., LTD., priority 2022, published 2026)
Read-outs that look alike come from different tables or passages of the source.

How the values were obtained:
PARP1 = PARP1 (Homo sapiens, UniProt P09874); test: PARP1-DNA enzymatic trapping assay; type: biochemical; conditions: 10 nM PARP1, 5 nM DNA probe, 2 mM NAD+, fluorescence polarization read at 30 minutes
Protocol: Enzymatic trapping assay is to measure the dissociation process of PARP1 from fluorescein-labeled DNA during the enzymatic activity. Assay was conducted at a total 10 μL of reaction volume, including 10 nM PARP1 and 5 nM DNA probe in the binding buffer (50 mM Tris-HCl pH 8.0, 50 mM NaCl, 1 mM MgCl2, 0.1 mM EDTA, and 0.01% IGEPAL), and was commenced by adding a final concentration of 2 mM NAD+ substrate.
PARP1 Poly-ADP ribosylation (PARylation) inhibitory assay was conducted with compounds dissolved in DMSO at a starting concentration of 5 μM. Dissolved compounds were added to 384-well microplate and premixed with PARPI enzyme and DNA probe for 20 minutes incubation. Enzymatic reactions were started by adding NAD+ to mixture, and each well was read at 30 minutes by microplate reader (VICTOR Nivo®, PerkinElmer) to detect the fluorescence polarization signal at 480 nm excitation/530 nm dual emission.
All measured IC50 values were calculated using four parameters dose-response inhibition model in GraphPad Prism 8.0.2 (La Jolla, California, USA, www.graphpad.com).

PARP2 = PARP2 (Homo sapiens, UniProt Q9UGN5); test: PARP2-FL displacement assay; type: binding; conditions: 20 nM PARP2, 3 nM PARPi-FL, 4 hours incubation, fluorescence polarization
Sequence of PARP2 (Q9UGN5 whole entry): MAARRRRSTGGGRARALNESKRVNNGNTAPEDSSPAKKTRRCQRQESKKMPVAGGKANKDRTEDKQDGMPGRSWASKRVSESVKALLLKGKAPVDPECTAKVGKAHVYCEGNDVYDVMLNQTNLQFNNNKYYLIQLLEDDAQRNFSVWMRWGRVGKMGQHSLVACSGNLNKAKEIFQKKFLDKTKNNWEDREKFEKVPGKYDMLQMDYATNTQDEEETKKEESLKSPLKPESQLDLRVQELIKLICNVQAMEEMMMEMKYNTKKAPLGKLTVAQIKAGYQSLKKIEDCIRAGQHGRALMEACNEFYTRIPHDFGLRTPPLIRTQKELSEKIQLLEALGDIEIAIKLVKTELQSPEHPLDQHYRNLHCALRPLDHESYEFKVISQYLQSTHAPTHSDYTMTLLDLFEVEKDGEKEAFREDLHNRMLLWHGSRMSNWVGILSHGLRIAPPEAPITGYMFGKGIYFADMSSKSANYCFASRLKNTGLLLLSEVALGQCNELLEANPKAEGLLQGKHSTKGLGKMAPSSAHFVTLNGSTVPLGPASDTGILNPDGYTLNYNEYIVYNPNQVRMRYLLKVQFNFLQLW
Protocol: A potent PARP inhibitor (PARPi-FL, Cat No. 6461, Tocris Bioscience) conjugated to BDY FL fluorophore was adopted to characterize the activity of PARP2 by measuring the displacement of binding of PARPi-FL to PARP2. Compounds to be tested were prepared at a concentration of 1-10 mM, and made a 3-fold serial dilution by 100% DMSO in a polypropylene plate (Bio-One small volume microplate, black, Cat No. 784076, Greiner). 100 nL of test compounds were dispensed into a 384-well polypropylene microplate and added 10 μL of reaction solution including premixed 20 nM PARP2 and 3 nM PARPi-FL. After 4 hours of incubation at room temperature, the fluorescence polarization signal at 480/30 nm excitation and 530/30 nm dual emission was measured by VICTOR Nivo® multimode plate reader (PerkinElmer). All of the measured IC50 values were calculated using four parameters dose-response inhibition model in GraphPad Prism 8.0.2 (La Jolla, California, USA, www.graphpad.com).

MDA-MB-436 cells = test: Cell proliferation assay (MDA-MB-436); type: cell-based; conditions: at least 7 days, Cell-Titer Glo, read-out: MDA-MB-436 anti-proliferation assay
Protocol: (§1) For PARPi sensitivity, exponentially growing MDA-MB-436 and DLD1 BRCA2^−/− cells were seed in 96 or 384-well plates at very low density with the goal of not splitting for at least 7 days (typically 0.3k-1.2k cells/well). Cells were plated on […] and treated with DMSO or increasing concentrations of PARP1 inhibitors on Day 0. At the end of the experiment, cell viability was estimated using Cell-Titer Glo (Promega).

DLD1 BRCA2−/− cells = test: Cell proliferation assay (DLD1 BRCA2−/−); type: cell-based; conditions: at least 7 days, Cell-Titer Glo, read-out: DLD1 BRCA2−/− anti-proliferation assay
Protocol: as §1

[1] = Homo sapiens, MDA-MB-436, 168 h

Sequence of PARP1 (P09874 whole entry): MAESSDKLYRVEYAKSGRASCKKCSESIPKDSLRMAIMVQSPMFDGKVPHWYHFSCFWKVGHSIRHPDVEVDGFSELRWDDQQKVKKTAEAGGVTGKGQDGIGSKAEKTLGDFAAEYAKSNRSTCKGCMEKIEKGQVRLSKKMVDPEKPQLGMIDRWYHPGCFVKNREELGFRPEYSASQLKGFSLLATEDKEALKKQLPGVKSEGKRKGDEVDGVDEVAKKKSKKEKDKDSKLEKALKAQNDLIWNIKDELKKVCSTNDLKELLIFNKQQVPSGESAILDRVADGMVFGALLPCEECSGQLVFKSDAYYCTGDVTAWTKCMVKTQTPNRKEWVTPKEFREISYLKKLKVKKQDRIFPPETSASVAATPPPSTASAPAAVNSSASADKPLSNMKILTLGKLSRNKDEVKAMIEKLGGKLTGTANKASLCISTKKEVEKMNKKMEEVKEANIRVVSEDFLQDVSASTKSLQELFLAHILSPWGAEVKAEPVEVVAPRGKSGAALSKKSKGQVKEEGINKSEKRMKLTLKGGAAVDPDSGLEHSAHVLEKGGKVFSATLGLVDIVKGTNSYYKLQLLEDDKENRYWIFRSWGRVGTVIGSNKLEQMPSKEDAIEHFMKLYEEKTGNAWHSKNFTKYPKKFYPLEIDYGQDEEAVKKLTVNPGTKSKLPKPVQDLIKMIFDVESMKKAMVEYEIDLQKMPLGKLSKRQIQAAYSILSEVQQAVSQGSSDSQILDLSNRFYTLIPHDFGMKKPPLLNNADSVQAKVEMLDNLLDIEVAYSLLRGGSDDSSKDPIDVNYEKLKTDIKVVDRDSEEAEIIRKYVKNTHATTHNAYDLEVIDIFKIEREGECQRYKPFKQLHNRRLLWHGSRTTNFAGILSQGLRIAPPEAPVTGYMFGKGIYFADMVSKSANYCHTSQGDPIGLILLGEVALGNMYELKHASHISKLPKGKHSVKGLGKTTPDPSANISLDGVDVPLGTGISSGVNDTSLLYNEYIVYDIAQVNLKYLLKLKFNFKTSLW

| SMILES | IC50 (PARP1) [nM] | IC50 (PARP2) [nM] | IC50 (MDA-MB-436 cells; [1]) [nM] | IC50 (DLD1 BRCA2−/− cells; Homo sapiens, DLD-1, 168 h) [nM] | IC50 (MDA-MB-436 cells) [nM] | IC50 (DLD1 BRCA2−/− cells) [nM] |
| --- | --- | --- | --- | --- | --- | --- |
| COCCNC(=O)c1ccc(N2C[C@H]3CN(Cc4cnc5c6c(c(=O)[nH]c5c4)CCC6)C[C@@H]3C2)c(F)n1 [Compound 49] | 9.61 | 2110 | 1.03 | 2.16 |  |  |
| CNC(=O)c1ccc(N2C[C@H]3CN(Cc4cnc5c6c(c(=O)[nH]c5c4)CCCC6)C[C@@H]3C2)c(F)n1 [Compound 82] | 13.1 | 185 | 1.38 | 0.55 |  |  |
| O=C(NC1CC1)c1ccc(N2C[C@@H]3CN(Cc4cnc5c6c(c(=O)[nH]c5c4)COCC6)C[C@H]3C2)c(F)n1 (stereo in doubt) [Compound 72] | 9.52 | 832 | 0.35 | 2.11 |  |  |
| CNC(=O)c1ccc(N2C[C@H]3CN(Cc4cc5[nH]c(=O)c6c(c5cn4)COCC6)C[C@@H]3C2)c(F)n1 [Compound 80] | 5.05 | 3880 | 0.84 | 4.75 |  |  |
| O=C(NC1COC1)c1ccc(N2C[C@H]3CN(Cc4cnc5c6c(c(=O)[nH]c5c4)CCCC6)C[C@@H]3C2)c(F)n1 [Compound 83] | 7.66 | 147 | 0.54 | 0.54 |  |  |
| CNC(=O)c1ccc(N2C[C@H]3CN(Cc4ccc5c6c(c(=O)[nH]c5c4)COCC6)C[C@@H]3C2)c(F)n1 [Compound 66] | 4.87 | 219 | 0.12 | 0.52 |  |  |
| CNC(=O)c1ccc(N2C[C@H]3CN(Cc4ccc5c6c(c(=O)[nH]c5c4)COC6)C[C@@H]3C2)c(F)n1 [Compound 60] | 8.17 | 2470 | 1.04 | 1.6 |  |  |
| O=C(N[C@H]1CCOC1)c1ccc(N2C[C@H]3CN(Cc4ccc5c6c(c(=O)[nH]c5c4)COCC6)C[C@@H]3C2)c(F)n1 [Compound 85] | 8.15 | 811 | 1.05 | 1.1 |  |  |
| CNC(=O)c1ccc(N2C[C@H]3CN(Cc4ccc5c6c(c(=O)[nH]c5c4)COCC6)C[C@@H]3C2)cn1 [Compound 65] | 6.22 | 334 | 0.36 | 0.63 |  |  |
| O=C(NC1COC1)c1ccc(N2C[C@H]3CN(Cc4cnc5c(c4)[nH]c(=O)c4cccn45)C[C@@H]3C2)c(F)n1 [Compound 64] | 8.01 | 2900 | 0.24 | 0.55 |  |  |
| CCc1cc2ncc(CN3C[C@@H]4CN(c5ccc(C(=O)NC)nc5F)C[C@H]4C3)cc2[nH]c1=O [Compound 27] | 7.52 | 1100 | 0.23 | 0.22 |  |  |
| O=C(NC1COC1)c1ccc(N2C[C@H]3CN(Cc4ccc5c6c(c(=O)[nH]c5c4)COCC6)C[C@@H]3C2)c(F)n1 [Compound 69] | 2.92 | 676 | 0.24 | 0.81 |  |  |
| COCCNC(=O)c1ccc(N2C[C@H]3CN(Cc4cnc5c(c4)[nH]c(=O)c4cccn45)C[C@@H]3C2)cn1 [Compound 46] | 8.21 | 2440 | 1.66 | 3.01 |  |  |
| CO[C@H]1C[C@@H](NC(=O)c2ccc(N3C[C@H]4CN(Cc5ccc6c7c(c(=O)[nH]c6c5)COCC7)C[C@@H]4C3)c(F)n2)C1 [Compound 70] | 4.2 | 614 | 0.39 | 0.7 |  |  |
| CCc1nc2ncc(CN3C[C@@H]4CN(c5ccc(C(=O)NC)nc5F)C[C@H]4C3)cc2[nH]c1=O [Compound 37] | 13.5 |  | 4.63 | 5.98 |  |  |
| CCc1cc2ncc(CN3C[C@@H]4CN(c5ccc(C(=O)NC)nc5)C[C@H]4C3)cc2[nH]c1=O [Compound 15] | 6.25 | 1270 | 0.37 | 0.33 |  |  |
| O=C(N[C@@H]1CCOC1)c1ccc(N2C[C@H]3CN(Cc4ccc5c6c(c(=O)[nH]c5c4)COCC6)C[C@@H]3C2)c(F)n1 [Compound 86] | 11.7 | 2370 | 2.25 | 1.37 |  |  |

| SMILES | IC50 (PARP1) [nM] | IC50 (PARP2) [nM] | IC50 (MDA-MB-436 cells; [1]) [nM] | IC50 (DLD1 BRCA2−/− cells; Homo sapiens, DLD-1, 168 h) [nM] | IC50 (MDA-MB-436 cells) [nM] | IC50 (DLD1 BRCA2−/− cells) [nM] |
| --- | --- | --- | --- | --- | --- | --- |
| COCCNC(=O)c1ccc(N2C[C@H]3CN(Cc4ccc5c6c(c(=O)[nH]c5c4)COCC6)C[C@@H]3C2)cn1 [Compound 68] | 14.6 |  | 0.6 | 12.3 |  |  |
| CNC(=O)c1ccc(N2C[C@H]3CN(Cc4cc5[nH]c(=O)c6c(c5cn4)CCC6)C[C@@H]3C2)c(F)n1 [Compound 54] | 6.44 | 7100 | 0.45 | 0.54 |  |  |
| CNC(=O)c1ccc(N2C[C@@H]3CN(Cc4ccc5nc(C)c(=O)[nH]c5c4F)C[C@H]3C2)c(F)n1 (racemic) [Compound 3] | 41.1 |  | 15.7 | 45.3 |  |  |
| CNC(=O)c1ccc(N2C[C@H]3CN(Cc4cnc5c(c4)NC(=O)[C@@H]4CCCN54)C[C@@H]3C2)c(F)n1 [Compound 22] | 10.9 |  | 0.69 | 1.09 |  |  |
| CCC1Oc2ncc(CN3C[C@H]4CN(c5ccc(C(=O)NC)nc5)C[C@@H]4C3)cc2NC1=O (mixture of isomers) [Compound 5] | 111 |  |  |  | 39.9 | 18.6 |
| Cc1cc2ncc(CN3C[C@H]4CN(c5ccc(C(=O)NC6CC6)nc5)C[C@@H]4C3)cc2[nH]c1=O (racemic) [Compound 20] | 16.6 |  | 3.47 | 4.12 |  |  |
| CNC(=O)c1ccc(N2C[C@H]3CN(Cc4cnc5cc(C)c(=O)[nH]c5c4)C[C@@H]3C2)c(F)n1 [Compound 29] | 10.9 |  | 0.59 | 0.87 |  |  |
| CNC(=O)c1ccc(N2C[C@H]3CN(Cc4cnc5cc(C)c(=O)[nH]c5c4)C[C@@H]3C2)c(C)n1 [Compound 25] | 20.5 |  | 5.06 | 7.49 |  |  |
| CCc1cc2ncc(CN3C[C@H]4CN(c5ccc(C(=O)NC)nc5)C[C@@H]4C3)cc2[nH]c1=O [Compound 9] | 10.8 |  |  | 1.29 | 1.76 |  |
| CNC(=O)c1ccc(N2C[C@@H]3CN(Cc4cnc5c(c4)NC(=O)[C@@H]4CCCN54)C[C@H]3C2)c(F)n1 [Compound 23] | 31.1 |  | 20.2 | 34.9 |  |  |
| CCc1cc2ncc(CN3C[C@H]4CN(c5ccc(C(=O)NCCOC)nc5)C[C@@H]4C3)cc2[nH]c1=O (racemic) [Compound 26] | 5.99 |  | 0.69 | 1.6 |  |  |
| O=C(NC1COC1)c1ccc(N2C[C@H]3CN(Cc4cc5[nH]c(=O)c6c(c5cn4)CCC6)C[C@@H]3C2)c(F)n1 [Compound 59] | 5.17 |  | 0.37 | 1.35 |  |  |
| CNC(=O)c1ccc(N2C[C@@H]3CN(Cc4ccc5c(c4)[nH]c(=O)n4ccnc54)C[C@H]3C2)cn1 (racemic) [Compound 13] | 46.3 |  | 31.6 | 10.6 |  |  |
| CNC(=O)c1ccc(N2C[C@H]3CN(Cc4ccc5nc(C)c(=O)[nH]c5c4F)C[C@@H]3C2)c(F)n1 [Compound 10] | 20.6 |  | 7.84 | 4.92 |  |  |
| COCCNC(=O)c1ccc(N2C[C@H]3CN(Cc4cnc5cc(C)c(=O)[nH]c5c4)C[C@@H]3C2)c(F)n1 [Compound 35] | 23.7 |  | 3 | 4.14 |  |  |
| CNC(=O)c1ccc(N2C[C@@H]3CN(Cc4ccc5c(c4F)NC(=O)C(C)O5)C[C@H]3C2)cn1 (mixture of isomers) [Compound 17] | > 500 |  | > 500 | 468 |  |  |
